Our source for the EC50, IC50 and outcome values is PubChem BioAssay AID179 (DTP/NCI, 2004).

This experiment concerns CEM cells HIV-1 protection, formazan growth assay. The experiment is described as follows: NCI AIDS Antiviral Assay. Particulars: for IC50: measured here: growth of uninfected CEM cells. An outline of the steps:
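CEM (human) cells, HIV-1 infected vs uninfected, 5-point dosing, formazan growth read-out. Retest threshold 50% protection.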

The source made the active and inactive calls.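 How the source made its calls: active means compounds giving half or more protection of infected cells from virus-caused growth loss, again on retest; inactive means the rest.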 *1 amine or outer side, *2 acyl side, *3 side chain or, on linkers, in order; H or OH if unused. Where a SMILES comes first, the peptide text is derived from it. [ ]: non-standard residue; d: D form. The star is where a group is joined. X3 = CC(=O)N(C)SCC(N[*:1])C(=O)[*:2]; Fmoc = O=C(OCC1c2ccccc2-c2ccccc21)*; For = O=C*

Broadly, the EC50 is the concentration that produces a half-maximal response. As a reminder, the IC50 is the concentration needed to halve the response being measured. A lower IC50 goes with inhibition by little substance. As to `C/C(=C\[C@H]1C[C@@H]([C@@H]2CC[C@]34C[C@]23C=C[C@@H]2[C@@]3(C)CC=C5C[C@@H](c6ccccc6)OC[C@]5(C)[C@@H]3C[C@@H](O)[C@]24C)C(=O)O1)CO`, the EC50 was over 200 µM and the IC50 is 1.1 µM. As to `CC1=Nc2ccccc2SC(c2c(Cl)cccc2Cl)C1` (configuration not stated), the EC50 was over 22.4 µM and the half-inhibitory concentration (IC50) was determined as 4.57 µM. On to `O=C(O)/C=C/c1c2ccc(=O)cc-2oc2cc(O)ccc12`, for which the EC50 was over 200 µM and the IC50 came to 28.8 µM. Turning to `O=C1NS(=O)(=O)c2cc(Cl)ccc21`, the EC50 was over 1150 µM and the IC50 is over 1150 µM. With `CC1ON2CCCC2[C@H]1C(=O)N1C2CC3CCC2(CS1(=O)=O)C3(C)C` (some centres not stated), the EC50 is over 200 µM and the 50% inhibitory concentration (IC50) is over 200 µM.

As for `CN(C)c1nncc2[nH]cnc12`, the EC50 is over 200 µM and the 50% inhibitory concentration (IC50) was over 200 µM. Take `O=C(NCCCNCCCCNCCCNC(=O)c1cc(-c2ccccc2)nc2ccccc12)c1cc(-c2ccccc2)nc2ccccc12`: the EC50 was over 20 µM and the half-inhibitory concentration (IC50) worked out at 3.8 µM. On to `COc1cc(C(c2cccc3ccccc23)N2C(=O)CCC2C(=O)O)cc(OC)c1OC` (configuration not stated), for which the EC50 was over 200 µM and the IC50 was over 200 µM. Turning to `O=C([O-])c1n[nH]c([O-])c1N=Nc1ccc(/C=C/c2ccc(N=Nc3c(C(=O)[O-])n[nH]c3[O-])cc2S(=O)(=O)[O-])c(S(=O)(=O)[O-])c1.[Cu+2].[Cu+2].[Na+]`, the EC50 is over 50.1 µM and the half-maximal inhibitory concentration (IC50) is over 50.1 µM. For the molecule `O=[N+]([O-])c1ccccc1CS(=O)(=O)c1ccccc1`, the result was inactive. Regarding `CN(C)P1(=O)OCC(C(C)(C)C)CN1c1ccccc1` (configuration not stated), the EC50 is over 200 µM and the IC50 was over 200 µM. Regarding `O=C(C[n+]1ccccc1)N/N=C(\Cc1nc2ccc([N+](=O)[O-])cc2[nH]c1=O)C(=O)Nc1cc(Cl)c(Cl)cc1Cl`, the EC50 is over 79.4 µM and the IC50 is 66.1 µM. For `CC(C)c1ccccc1NC(=O)C(=O)Cc1nc2ccccc2s1`, the outcome was inactive. In the case of `O=C1OC2CS(=O)CC2O1` (configuration not stated), the EC50 was over 1550 µM and the 50% inhibitory concentration (IC50) is over 1550 µM.

`O=c1cc(NNc2cccc(F)c2)[nH]c(=S)[nH]1`: the EC50 was over 200 µM and the IC50 is 87.1 µM. Consider `CN(C(=O)C12C3C4C1C1C2C3C41C(N)=O)C(C)(C)C` (configuration not stated), for which the EC50 was over 52.5 µM and the IC50 is over 52.5 µM.

Consider `O=CC1=CCCN(CCc2c[nH]c3ccccc23)C1`, for which the EC50 was over 195 µM and the IC50 came out at 10.2 µM. On to `Nc1ccc2cc(S(=O)(=O)O)c(N=Nc3ccc(-c4ccc(N=Nc5c(S(=O)(=O)O)cc6cc(S(=O)(=O)O)c(N=Nc7cccc([N+](=O)[O-])c7)c(N)c6c5O)cc4)cc3)c(O)c2c1`, for which the result was active. As for `O=C(CC(=O)c1ccccc1)C(=O)NC12CC3CC(CC(C3)C1)C2`, the EC50 is over 11.5 µM and the IC50 was over 11.5 µM. Take `C=C(C)C(=O)O[C@H]1[C@H]2[C@H](OC(=O)[C@H]2C)[C@H](O)[C@@H](C)[C@@H]2C=CC(=O)[C@]21C`: the EC50 is over 363 µM and the 50% inhibitory concentration (IC50) came to 1.91 µM. For `CC(=O)N(C)SCC(NC(=O)C(Cc1ccccc1)NC(=O)OCC1c2ccccc2-c2ccccc21)C(=O)NC(Cc1ccccc1)C(=O)NC(Cc1cn(C=O)c2ccccc12)C(=O)NC(CCCCNC(=O)OCC1c2ccccc2-c2ccccc21)C(=O)NC(C(=O)NC(CSN(C)C(C)=O)C(=O)NC(C(N)=O)C(C)O)C(C)O` (configuration not stated) (Fmoc-F[X3]FW(For)K(Fmoc)T[X3]T-NH2; configuration not given here), the EC50 was over 100 µM and the IC50 amounted to 79.4 µM. Take `O=C1c2ccccc2[Se](=O)N1c1ccccc1` (configuration not stated): the EC50 was 1.17 µM and the IC50 came to 14.1 µM. Take `Cc1c2c(nc3ccccc13)C(=O)c1cccnc1C2=O`: the EC50 is over 100 µM and the half-inhibitory concentration (IC50) was 13.5 µM. For the molecule `COC(=O)/C=C(\C=C/C(=O)O)C(=O)O`, the EC50 is over 1260 µM and the concentration for half-maximal inhibition (IC50) was 251 µM. Consider `O=c1c2c3c(sc2nc(CN2CCNCC2)n1-c1ccccc1)CCCC3`, for which the EC50 was over 100 µM and the concentration for half-maximal inhibition (IC50) was over 100 µM. `CC(C)Cn1c(N)c(N=O)c(=O)n(C)c1=O`: the EC50 is over 200 µM and the IC50 was over 200 µM. Consider `CC1=C(C(=O)Nc2ccc([N+](=O)[O-])cc2)C(c2ccc3c(c2)OCO3)C(C(=O)Nc2ccc([N+](=O)[O-])cc2)=C(C)N1`, for which the EC50 was over 6.76 µM and the IC50 was over 6.76 µM.

As to `CCOC(=O)c1ccc(N2C(=O)/C(=C\OC)c3ccccc3C2=O)cc1`, the result was inactive. Turning to `CCC(O)(Cc1ccccc1)C(C(=O)O)c1ccccc1` (configuration not stated), the EC50 is over 457 µM and the IC50 was 339 µM. As for `C[C@@H]1C[C@H]2[C@@H]3CCC4=CC(=O)CC[C@]4(C)[C@@]3(F)[C@@H](O)C[C@]2(C)[C@@]1(C)O`, the EC50 was over 200 µM and the IC50 came out at 87.1 µM.

Turning to `N#C/C(=C\c1cccs1)c1ccccc1`, the EC50 was over 200 µM and the IC50 was found to be 117 µM.

For the molecule `O=C1NCC2=C1CCC1c3ccccc3CCN21` (configuration not stated), the EC50 was over 200 µM and the IC50 was over 200 µM. On to `O=c1c2ccccc2nnn1N1CCOCC1`, for which the EC50 is over 81.3 µM and the IC50 is over 81.3 µM. With `COc1ccc(C(=O)Nc2ccn(CCOC(=O)c3ccc(OC)cc3)c(=O)n2)cc1`, the EC50 was over 44.7 µM and the half-maximal inhibitory concentration (IC50) is over 44.7 µM. `O=C1NC(=S)N(c2ccccc2)C1=O`: the EC50 is over 200 µM and the IC50 is over 200 µM. Regarding `CN(C(=O)c1ccc(Cl)cc1)C(=S)N1CCN(c2ccccc2)CC1`, the EC50 was over 19.5 µM and the concentration for half-maximal inhibition (IC50) was over 19.5 µM. Consider `CCn1cc(C(=O)O)c(=O)c2cc3c(cc21)OCO3`, for which the EC50 is over 38 µM and the IC50 is over 38 µM. `COc1ccc2c(c1[N+](=O)[O-])CC[C@@H]1[C@@H]2CC[C@]2(C)C(=O)CC[C@@H]12`: the EC50 was over 11 µM and the IC50 was over 11 µM. Consider `CC1=C(c2cc(C(=O)Nc3nccs3)nc(NC#N)n2)Sc2ccccc2N1`, for which the EC50 is over 45.7 µM and the 50% inhibitory concentration (IC50) is over 45.7 µM.

For the molecule `COc1ccc(C(C)(O)c2cc3ccccc3n2S(=O)(=O)c2ccccc2)cc1` (configuration not stated), the EC50 was over 200 µM and the IC50 came out at 16.2 µM. Consider `O=C1c2ccccc2C(=O)C1(O)c1c[nH]c2ccccc12`, for which the EC50 was over 912 µM and the IC50 turned out to be 64.6 µM. For `Cc1cc2c(C)nn(Cc3ccccc3)c2c(C(=O)O)c1C`, the EC50 is over 123 µM and the IC50 was over 123 µM.

For the molecule `O=c1[nH]n(CCc2ccncc2)c(=O)c2ccccc12`, the EC50 was over 200 µM and the IC50 is over 200 µM.

Take `NC(CC(=O)OCc1ccccc1)C(=O)OCc1ccccc1` (configuration not stated): the EC50 is over 200 µM and the IC50 is over 200 µM.

As for `COc1ccc(N2C(=O)C3c4[nH]c5ccccc5c4C4CCCCCCCCCCC4C3C2=O)cc1` (configuration not stated), the EC50 was over 5.62 µM and the IC50 was over 5.62 µM. In the case of `CN1C(=O)C(O)(CC(=O)c2ccccc2)c2ccccc21` (configuration not stated), the EC50 is over 200 µM and the IC50 worked out at 35.5 µM. For `CCCCNC(=S)/N=C/c1c(O)cc(C)oc1=O`, the EC50 is over 200 µM and the IC50 was over 200 µM.

`Nc1c(-c2nc3ccccc3[nH]2)sc(=S)n1-c1ccc(Cl)cc1`: the EC50 was over 14.5 µM and the IC50 was over 14.5 µM. On to `CC(C)[Si](OC12CCC(CC1O)CC2CO)(C(C)C)C(C)C` (configuration not stated), for which the EC50 was over 200 µM and the 50% inhibitory concentration (IC50) came out at 24.5 µM. As for `CCCCc1ccc(-n2c3nc(=O)n(C)c(=O)c-3nc3ccccc32)cc1`, the result was inactive.

Consider `CC(=O)OCC1OC(n2c3c(c(-c4cccc5ccccc45)c(C#N)c2=S)CCCC3)C(OC(C)=O)C(OC(C)=O)C1OC(C)=O` (configuration not stated), for which the EC50 is over 200 µM and the concentration for half-maximal inhibition (IC50) turned out to be 47.9 µM. Turning to `NC(=O)C12CC3CC(CC(Br)(C3)C1)C2`, the EC50 was over 977 µM and the half-maximal inhibitory concentration (IC50) amounted to 891 µM. Taken in the same sequence, the figures for `COc1ccc(C2=C/C(=C3/C(=O)C=C(C)OC3=O)SS2)cc1` were over 100 µM and over 100 µM. As for `CC(C)(NO)/C(=N\O)c1ccco1`, the EC50 is over 200 µM and the IC50 was over 200 µM. In the case of `CNC(=O)C1CCCN1C(=O)C(Cc1cnc[nH]1)NC(=O)C1CCC(=O)N1` (configuration not stated), the EC50 was over 200 µM and the concentration for half-maximal inhibition (IC50) was over 200 µM. As to `COc1ccc(NC(=O)CC(=O)NNC(Sc2ccccc2)c2cc(N=Nc3ccc(Br)cc3)ccc2O)cc1` (configuration not stated), the outcome was inactive. `CC(C)c1cc[n+](/C(C(=S)Nc2cccc(Cl)c2)=C(/[O-])c2ccc([N+](=O)[O-])cc2)cc1`: the EC50 is over 200 µM and the IC50 is 69.2 µM. In the case of `CC(C)(C)C1=NC(=S)SC2=NC(=O)C3(NN21)c1ccccc1-c1ccccc13`, the EC50 was over 200 µM and the IC50 turned out to be 20 µM. On to `COC1(OC)CCC2C1C1CCC(OC)(OC)C21` (configuration not stated), for which the EC50 was over 141 µM and the 50% inhibitory concentration (IC50) is over 141 µM. Consider `C=CCC1(c2ccccc2)Oc2cccnc2-n2cccc2C1=O` (configuration not stated), for which the EC50 is over 200 µM and the IC50 was found to be 8.91 µM.

`c1coc(-c2cc(-c3cc(-c4ccco4)on3)no2)c1`: the EC50 is over 933 µM and the half-inhibitory concentration (IC50) came out at 589 µM. The matching figures for `O=C(N1CC2(CN(C(=O)C(F)(F)F)CC3(C1)OCCO3)OCCO2)C(F)(F)F`: over 200 µM and over 200 µM. On to `COc1ccc(C(=O)Nc2sc(SC)nc2C(N)=O)cc1`, for which the EC50 was over 200 µM and the IC50 is over 200 µM. On to `Cc1ccc(-c2csc(=Nc3ccccc3)n2NC(=O)c2ccncc2)cc1`, for which the EC50 was over 200 µM and the IC50 is 22.9 µM.

Consider `CCOC1(C)Nc2cc(OC)cc3c2N1C(=O)CCS3` (configuration not stated), for which the EC50 is over 200 µM and the IC50 stood at 95.5 µM. As for `Cc1nc(N)c(N2CCN([N+](=O)[O-])CC2)c(=O)[nH]1`, the outcome was inactive. In the case of `O=C1C(c2ccccc2)=C(c2ccccc2)C(c2ccc(-c3ccc(C4=C(c5ccccc5)C(=O)C(c5ccccc5)=C4c4ccccc4)cc3)cc2)=C1c1ccccc1`, the EC50 was over 3.55 µM and the IC50 was over 3.55 µM.
